Experimental data from patent US9493446B2, “Orexin receptor antagonists which are [ortho bi-(hetero-)aryl]-[2-(meta bi-(hetero-)aryl)-pyrrolidin-1-yl]-methanone derivatives” (Actelion Pharmaceuticals Ltd, priority 2012, dated 2016).
Read-outs that look alike come from different tables or passages of the source.

Columns and labels:
human orexin-2 receptor = human orexin-2 receptor (Homo sapiens (Human), UniProt O43614); assay: Intracellular calcium measurement (FLIPR), CHO cells expressing human orexin-2 receptor, 3 nM orexin-A; format: cell-based; settings: read-out: IC50 OX2
human orexin-2 receptor, sequence (O43614 whole entry): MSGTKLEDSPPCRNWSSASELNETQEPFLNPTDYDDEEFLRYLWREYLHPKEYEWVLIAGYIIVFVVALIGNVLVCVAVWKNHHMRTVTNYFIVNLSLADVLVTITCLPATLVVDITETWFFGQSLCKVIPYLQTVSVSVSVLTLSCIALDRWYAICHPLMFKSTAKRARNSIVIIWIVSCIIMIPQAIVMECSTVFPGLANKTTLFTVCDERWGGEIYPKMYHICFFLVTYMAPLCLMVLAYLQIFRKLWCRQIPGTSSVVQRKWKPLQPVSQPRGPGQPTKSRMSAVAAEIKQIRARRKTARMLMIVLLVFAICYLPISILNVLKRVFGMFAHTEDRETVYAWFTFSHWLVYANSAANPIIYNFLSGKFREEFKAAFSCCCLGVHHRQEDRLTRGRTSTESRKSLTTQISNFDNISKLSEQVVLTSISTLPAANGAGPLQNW
Outline: (§1)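 Antagonist is added 120 min before agonist. Fluo-4 AM-loaded CHO cells carry human orexin-1 or orexin-2 receptor, and calcium is read by FLIPR.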

orexin-1 = orexin-1 (Homo sapiens (Human), UniProt O43613); assay: Intracellular calcium measurement (FLIPR), CHO cells expressing human orexin-1 receptor, 3 nM orexin-A; format: cell-based; settings: read-out: IC50 OX1
orexin-1, sequence (O43613 whole entry): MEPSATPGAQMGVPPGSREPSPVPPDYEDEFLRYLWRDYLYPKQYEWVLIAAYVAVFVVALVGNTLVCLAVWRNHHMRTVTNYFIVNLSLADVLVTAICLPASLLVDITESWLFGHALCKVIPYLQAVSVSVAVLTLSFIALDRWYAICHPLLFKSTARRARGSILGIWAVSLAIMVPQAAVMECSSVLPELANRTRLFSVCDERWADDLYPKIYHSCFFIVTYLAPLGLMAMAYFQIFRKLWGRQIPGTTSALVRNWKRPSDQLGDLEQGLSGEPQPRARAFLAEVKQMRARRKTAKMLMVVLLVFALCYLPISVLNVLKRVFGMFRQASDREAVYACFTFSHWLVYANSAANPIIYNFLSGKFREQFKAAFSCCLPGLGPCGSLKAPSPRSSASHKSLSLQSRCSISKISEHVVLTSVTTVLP
Outline: as §1

[1] = CHO cells expressing human orexin-2 receptor, FLIPR, 3 nM orexin-A, geometric mean if determined several times
[2] = CHO cells expressing human orexin-1 receptor, FLIPR, 3 nM orexin-A, geometric mean if determined several times

Row | SMILES | IC50 (human orexin-2 receptor; [1]) | IC50 (orexin-1; [2]) | IC50 (orexin-1) | IC50 (human orexin-2 receptor)
1 | Cc1ccc(-n2nccn2)c(C(=O)N2CCC[C@H]2c2noc(-c3cccc4c3OCC4)n2)c1 [compound 307, {(S)-2-[5-(2,3-Dihydro-benzofuran-7-yl)-[1,2,4]oxadiazol-3-yl]-pyrrolidin-1-yl}-(5-methyl-2-[1,2,3]triazol-2-yl-phenyl)-methanone] | 3 nM | 130 nM | – | –
2 | CCOc1ccccc1-c1nc([C@@H]2CCCN2C(=O)c2cc(OC)c(C)cc2-n2nccn2)no1 [compound 309, {(S)-2-[5-(2-Ethoxy-phenyl)-[1,2,4]oxadiazol-3-yl]-pyrrolidin-1-yl}-(5-methoxy-4-methyl-2-[1,2,3]triazol-2-yl-phenyl)-methanone] | 1 nM | 13 nM | – | –
3 | COc1cc(C(=O)N2CCC[C@H]2c2noc(-c3cccc(F)c3C)n2)c(-n2nccn2)cc1C [compound 310, {(S)-2-[5-(3-Fluoro-2-methyl-phenyl)-[1,2,4]oxadiazol-3-yl]-pyrrolidin-1-yl}-(5-methoxy-4-methyl-2-[1,2,3]triazol-2-yl-phenyl)-methanone] | 2 nM | 59 nM | – | –
4 | CCOc1ncccc1-c1nc([C@@H]2CCCN2C(=O)c2cc(OC)c(C)cc2-n2nccn2)no1 [compound 311, {(S)-2-[5-(2-Ethoxy-pyridin-3-yl)-[1,2,4]oxadiazol-3-yl]-pyrrolidin-1-yl}-(5-methoxy-4-methyl-2-[1,2,3]triazol-2-yl-phenyl)-methanone] | 4 nM | 16 nM | – | –
5 | Cc1ccc(-n2nccn2)c(C(=O)N2CCC[C@H]2c2noc(-c3n[nH]c4ccccc34)n2)c1 [compound 312, {(S)-2-[5-(1H-Indazol-3-yl)-[1,2,4]oxadiazol-3-yl]-pyrrolidin-1-yl}-(5-methyl-2-[1,2,3]triazol-2-yl-phenyl)-methanone] | 89 nM | 204 nM | – | –
6 | Cc1ccc(-n2nccn2)c(C(=O)N2CCC[C@H]2c2noc(-c3cnc4sccn34)n2)c1 [compound 313, [(S)-2-(5-Imidazo[2,1-b]thiazol-5-yl-[1,2,4]oxadiazol-3-yl)-pyrrolidin-1-yl]-(5-methyl-2-[1,2,3]triazol-2-yl-phenyl)-methanone] | 76 nM | 661 nM | – | –
7 | Cc1ccc(-n2nccn2)c(C(=O)N2CCC[C@H]2c2noc(-c3cccc(C(F)(F)F)n3)n2)c1 [compound 314, (5-Methyl-2-[1,2,3]triazol-2-yl-phenyl)-{(S)-2-[5-(6-trifluoromethyl-pyridin-2-yl)-[1,2,4]oxadiazol-3-yl]-pyrrolidin-1-yl}-methanone] | 314 nM | 249 nM | – | –
8 | Cc1ccc(-n2nccn2)c(C(=O)N2CCC[C@H]2c2noc(-c3cc(C(F)(F)F)ccn3)n2)c1 [compound 315, (5-Methyl-2-[1,2,3]triazol-2-yl-phenyl)-{(S)-2-[5-(4-trifluoromethyl-pyridin-2-yl)-[1,2,4]oxadiazol-3-yl]-pyrrolidin-1-yl}-methanone] | 2130 nM | 1050 nM | – | –
9 | COc1cc(Cl)cc(-c2nc([C@@H]3CCCN3C(=O)c3cc(C)ccc3-n3nccn3)no2)n1 [compound 316, {(S)-2-[5-(4-Chloro-6-methoxy-pyridin-2-yl)-[1,2,4]oxadiazol-3-yl]-pyrrolidin-1-yl}-(5-methyl-2-[1,2,3]triazol-2-yl-phenyl)-methanone] | 19 nM | 54 nM | – | –
10 | CCOc1c(F)cccc1-c1nc([C@@H]2CCCN2C(=O)c2cc(C)ccc2-n2nccn2)no1 [compound 319, {(S)-2-[5-(2-Ethoxy-3-fluoro-phenyl)-[1,2,4]oxadiazol-3-yl]-pyrrolidin-1-yl}-(5-methyl-2-[1,2,3]triazol-2-yl-phenyl)-methanone] | 2 nM | 11 nM | – | –
11 | COc1cc(C(=O)N2CCC[C@H]2c2noc(-c3cccc(Cl)c3C)n2)c(-n2nccn2)cc1C [compound 320] | 1 nM | 25 nM | – | –
12 | Cc1cc(C(=O)N2CCC[C@H]2c2noc(-c3cccc(Cl)c3C)n2)c(-n2nccn2)cc1C [compound 321] | 1 nM | – | 7 nM | –
13 | COc1cc(C(=O)N2CCC[C@H]2c2noc(-c3cccc(Cl)c3C)n2)c(-n2nccn2)cc1F [compound 322] | 6 nM | 158 nM | – | –
14 | CCOc1c(F)cccc1-c1nc([C@@H]2CCCN2C(=O)c2cc(OC)c(C)cc2-n2nccn2)no1 [compound 323, {(S)-2-[5-(2-Ethoxy-3-fluoro-phenyl)-[1,2,4]oxadiazol-3-yl]-pyrrolidin-1-yl}-(5-methoxy-4-methyl-2-[1,2,3]triazol-2-yl-phenyl)-methanone] | 1 nM | 9 nM | – | –
15 | CCOc1c(F)cccc1-c1nc([C@@H]2CCCN2C(=O)c2cc(OC)c(F)cc2-n2nccn2)no1 [compound 325, {(S)-2-[5-(2-Ethoxy-3-fluoro-phenyl)-[1,2,4]oxadiazol-3-yl]-pyrrolidin-1-yl}-(4-fluoro-5-methoxy-2-[1,2,3]triazol-2-yl-phenyl)-methanone] | 6 nM | 151 nM | – | –
16 | CCOc1c(F)cccc1-c1nc([C@@H]2CCCN2C(=O)c2cc(OC)ccc2-n2nccn2)no1 [compound 326, {(S)-2-[5-(2-Ethoxy-3-fluoro-phenyl)-[1,2,4]oxadiazol-3-yl]-pyrrolidin-1-yl}-(5-methoxy-2-[1,2,3]triazol-2-yl-phenyl)-methanone] | 3 nM | 27 nM | – | –
17 | CCOc1c(F)cccc1-c1nc([C@@H]2CCCN2C(=O)c2cc(Cl)ccc2-n2nccn2)no1 [compound 327] | – | 38 nM | – | 4 nM
18 | CCOc1c(F)cccc1-c1nc([C@@H]2CCCN2C(=O)c2ccc(C)cc2-n2nccn2)no1 [compound 328, {(S)-2-[5-(2-Ethoxy-3-fluoro-phenyl)-[1,2,4]oxadiazol-3-yl]-pyrrolidin-1-yl}-(4-methyl-2-[1,2,3]triazol-2-yl-phenyl)-methanone] | 4 nM | 16 nM | – | –
19 | CCOc1c(F)cccc1-c1nc([C@@H]2CCCN2C(=O)c2ccc(Cl)cc2-n2nccn2)no1 [compound 329] | – | 16 nM | – | 4 nM
20 | CCOc1ncccc1-c1nc([C@@H]2CCCN2C(=O)c2cc(C)ccc2-n2nccn2)no1 [compound 330, {(S)-2-[5-(2-Ethoxy-pyridin-3-yl)-[1,2,4]oxadiazol-3-yl]-pyrrolidin-1-yl}-(5-methyl-2-[1,2,3]triazol-2-yl-phenyl)-methanone] | 2 nM | 5 nM | – | –
21 | CCOc1ncccc1-c1nc([C@@H]2CCCN2C(=O)c2cc(C)c(C)cc2-n2nccn2)no1 [compound 331, (4,5-Dimethyl-2-[1,2,3]triazol-2-yl-phenyl)-{(S)-2-[5-(2-ethoxy-pyridin-3-yl)-[1,2,4]oxadiazol-3-yl]-pyrrolidin-1-yl}-methanone] | 0.5 nM | 1 nM | – | –
22 | CCOc1ncccc1-c1nc([C@@H]2CCCN2C(=O)c2cc(OC)c(F)cc2-n2nccn2)no1 [compound 332, {(S)-2-[5-(2-Ethoxy-pyridin-3-yl)-[1,2,4]oxadiazol-3-yl]-pyrrolidin-1-yl}-(4-fluoro-5-methoxy-2-[1,2,3]triazol-2-yl-phenyl)-methanone] | 4 nM | 99 nM | – | –
23 | Cc1c(F)cccc1-c1nc([C@@H]2CCCN2C(=O)c2ccccc2-n2nccn2)no1 [compound 333, {(S)-2-[5-(3-Fluoro-2-methyl-phenyl)-[1,2,4]oxadiazol-3-yl]-pyrrolidin-1-yl}-(2-[1,2,3]triazol-2-yl-phenyl)-methanone] | 17 nM | 644 nM | – | –
